In patent publication US12679877B2, “NPRA agonists, compositions, and uses thereof” (PharmaIn Corporation, priority 2017, dated 2026):
Non-standard residues stand in square brackets, D forms with d. No end group written: not given here. *: point of attachment. Stearoyl = CCCCCCCCCCCCCCCCCC(=O)*; Lauroyl = CCCCCCCCCCCC(=O)*

Test system: natriuretic peptide receptors (NPRA or NPRB)
Test: 2-point blood cGMP evaluation (2 and 6 hours) after 15 mg/Kg s.c., cGMP Direct Biotrak EIA
Assay type: in vivo, CD-1 mice
Conditions: for In vivo blood cGMP minus baseline, 2 hour (potency) / In vivo blood cGMP minus baseline, 6 hour (receptor depletion): 15 mg/Kg s.c. in mice (n=3), minus baseline 30 pmol/ml (n=12); for In vivo blood cGMP minus baseline, 2 hour (potency): 2 hours after dosing; for In vivo blood cGMP minus baseline, 6 hour (receptor depletion): 6 hours after dosing; for activity / potency compared to ANP, in words (2 hour data in Table 2) / apparent receptor depletion/internalization, in words (6 hour data in Table 2): 15 mg/Kg s.c. in mice, blood cGMP
Experimental: Various derivatives of ANP were made and screened for increase in vivo potency while limiting the apparent receptor depletion effects (or perhaps can act on another cGMP enhancing receptors) by looking at the level of blood cGMP at specific time points. […] Various derivatives were made and tested in vivo to determine the level of blood cGMP at 2 hours and 6 hours after subcutaneous administration of 15 mg/Kg in mice (which was allometrically equivalent to human dose of 1.5 mg/Kg) with the goal of finding derivatives that were therapeutically useful for increasing blood cGMP.
For 2-point cGMP evaluation of various derivatives, test samples were dissolved in water (Lonza, Wakersville, MD) before being lyophilized. Prior to use, the lyophilized test sample was dissolved in saline then 15 mg/Kg was injected subcutaneously into female CD-1 mice 6-8 weeks (n=3). Blood samples were collected at 2 and 6 hours with K2EDTA blood collection tube. The collection tube was then centrifuged at 13,000 rpm for 10 minutes at 4° C. to separate plasma. The plasma was analyzed using the cGMP Direct Biotrak EIA (GE Healthcare Life Sciences, Marlborough, MA). Note that by using allometric scaling at exponent of 0.7 [dose in other species=mice dose/((mouse weight/weight of average other species)^0.7)], the 15 mg/Kg in mice is equivalent to about 7.5 mg/Kg rat dose, about 2.5 mg/Kg dog dose, and 1.5 mg/Kg human dose. For the purpose the present disclosure, the 15 mg/Kg in mice as presented in the relevant data examples, should be understood as equivalent to about 7.5 mg/Kg rat dose, which is equivalent to about 2.5 mg/Kg dog dose, which is equivalent to about 1.5 mg/Kg human dose. Because the mice cGMP response to 15 mg/Kg dose of the newly discovered derivatives (see Table 2) was quite high, it would be prudent to use daily doses that are lower than 15 mg/Kg for mice, 7.5 mg/Kg for rat, 2.5 mg/Kg for dog, and 1.5 mg/Kg for human since any higher dose may result in too much increase in cGMP that can result in too much or even dangerous drop in blood pressure unless formulated in a very slow release delivery system. In fact based on cGMP response it was more preferable to use daily doses that are lower than […], 1.5 mg/Kg for rat, 0.5 mg/Kg for dog, and 0.3 mg/Kg for human. Additionally, the level of blood cGMP is preferably between 1.5 to 3-times of the normal baseline level. The blood or plasma cGMP normal baseline level was about 20-50 pmol/ml but could vary slightly depending on the assay kit used to measure the level.

CH3(CH2)10CO-KKGGGSLRRSSCFGGRMDRIGAQSGLGCNSFRY (Lauroyl-KKGGGSLRRSSCFGGRMDRIGAQSGLGCNSFRY; not fully specified (bridges); printed as CH3(CH2)10CO-KKGGGSLRRSSCFGGRMDRIGAQSGLGCNSFRY; cysteine pairing not given here; listed as Homo Sapiens) [SEQ ID NO. 9]
In vivo blood cGMP minus baseline, 2 hour (potency): 163.62 nM
In vivo blood cGMP minus baseline, 6 hour (receptor depletion): 4.78 pmol/mL
activity / potency compared to ANP, in words (2 hour data in Table 2): increased potency

CH3(CH2)10CO-KKKGGGSLRRSSCFGGRMDRIGAQSGLGCNSFRY (Lauroyl-KKKGGGSLRRSSCFGGRMDRIGAQSGLGCNSFRY; not fully specified (bridges); printed as CH3(CH2)10CO-KKKGGGSLRRSSCFGGRMDRIGAQSGLGCNSFRY; cysteine pairing not given here; listed as Homo Sapiens) [SEQ ID NO. 11]
In vivo blood cGMP minus baseline, 2 hour (potency): 136.16 nM
In vivo blood cGMP minus baseline, 6 hour (receptor depletion): 10.28 pmol/mL
activity / potency compared to ANP, in words (2 hour data in Table 2): increased potency

CH3(CH2)10CO-KKKKGGGSLRRSSCFGGRMDRIGAQSGLGCNSFRY (Lauroyl-KKKKGGGSLRRSSCFGGRMDRIGAQSGLGCNSFRY; not fully specified (bridges); printed as CH3(CH2)10CO-KKKKGGGSLRRSSCFGGRMDRIGAQSGLGCNSFRY; cysteine pairing not given here; listed as Homo Sapiens) [SEQ ID NO. 15]
In vivo blood cGMP minus baseline, 2 hour (potency): 60.52 nM
In vivo blood cGMP minus baseline, 6 hour (receptor depletion): 3.36 pmol/mL
activity / potency compared to ANP, in words (2 hour data in Table 2): increased potency
apparent receptor depletion/internalization, in words (6 hour data in Table 2): prevented apparent receptor depletion/internalization

CH3(CH2)16CO-KKGGGSLRRSSCFGGRMDRIGAQSGLGCNSFRY (Stearoyl-KKGGGSLRRSSCFGGRMDRIGAQSGLGCNSFRY; not fully specified (bridges); printed as CH3(CH2)16CO-KKGGGSLRRSSCFGGRMDRIGAQSGLGCNSFRY; cysteine pairing not given here; listed as Homo Sapiens) [SEQ ID NO. 10]
In vivo blood cGMP minus baseline, 2 hour (potency): 183.12 nM
In vivo blood cGMP minus baseline, 6 hour (receptor depletion): 14.78 pmol/mL
activity / potency compared to ANP, in words (2 hour data in Table 2): increased potency

CH3(CH2)16CO-KKKGGGSLRRSSCFGGRMDRIGAQSGLGCNSFRY (Stearoyl-KKKGGGSLRRSSCFGGRMDRIGAQSGLGCNSFRY; not fully specified (bridges); printed as CH3(CH2)16CO-KKKGGGSLRRSSCFGGRMDRIGAQSGLGCNSFRY; cysteine pairing not given here; listed as Homo Sapiens) [SEQ ID NO. 14]
In vivo blood cGMP minus baseline, 2 hour (potency): 574.25 nM
In vivo blood cGMP minus baseline, 6 hour (receptor depletion): 255.75 pmol/mL
activity / potency compared to ANP, in words (2 hour data in Table 2): increased potency

CH3(CH2)16CO-KKKKGGGSLRRSSCFGGRMDRIGAQSGLGCNSFRY (Stearoyl-KKKKGGGSLRRSSCFGGRMDRIGAQSGLGCNSFRY; not fully specified (bridges); printed as CH3(CH2)16CO-KKKKGGGSLRRSSCFGGRMDRIGAQSGLGCNSFRY; cysteine pairing not given here; listed as Homo Sapiens) [SEQ ID NO. 18]
In vivo blood cGMP minus baseline, 2 hour (potency): 355.17 nM
In vivo blood cGMP minus baseline, 6 hour (receptor depletion): 231.65 pmol/mL
activity / potency compared to ANP, in words (2 hour data in Table 2): increased potency
apparent receptor depletion/internalization, in words (6 hour data in Table 2): prevented apparent receptor depletion/internalization

CH3(CH2)16CO-KKKKSLRRSSCFGGRMDRIGAQSGLGCNSFRY (Stearoyl-KKKKSLRRSSCFGGRMDRIGAQSGLGCNSFRY; not fully specified (bridges); cysteine pairing not given here; listed as Homo Sapiens) [SEQ ID NO. 35]
In vivo blood cGMP minus baseline, 2 hour (potency): 45.00 nM
In vivo blood cGMP minus baseline, 6 hour (receptor depletion): 12.79 pmol/mL
activity / potency compared to ANP, in words (2 hour data in Table 2): slightly increased in activity
apparent receptor depletion/internalization, in words (6 hour data in Table 2): no significant effect on apparent receptor internalization

CH3(CH2)16CO-KKKKSLRRSSCFGGRMDRIGAQSGLGCNSFrY (Stearoyl-KKKKSLRRSSCFGGRMDRIGAQSGLGCNSF[dR]Y; not fully specified (bridges); printed as KKKKSLRRSSCFGGRMDRIGAQSGLGCNSFrY; cysteine pairing not given here; listed as Homo Sapiens) [SEQ ID NO. 36]
In vivo blood cGMP minus baseline, 2 hour (potency): inactive
In vivo blood cGMP minus baseline, 6 hour (receptor depletion): inactive

CH3(CH2)16CO-RRR-SGRGGGCFGGRMDRIGAQSGLGCNSFRY (Stearoyl-RRRSGRGGGCFGGRMDRIGAQSGLGCNSFRY; not fully specified (bridges); printed as CH3(CH2)16CO-RRR-SGRGGGCFGGRMDRIGAQSGLG; cysteine pairing not given here; listed as Homo Sapiens) [SEQ ID NO. 37]
In vivo blood cGMP minus baseline, 2 hour (potency): 45.61 nM
In vivo blood cGMP minus baseline, 6 hour (receptor depletion): 10.16 pmol/mL
activity / potency compared to ANP, in words (2 hour data in Table 2): limited increase in activity

CH3(CH2)16CO-RRR-SGRGSGCFGGRMDRIGAQSGLGCNSFRY (Stearoyl-RRRSGRGSGCFGGRMDRIGAQSGLGCNSFRY; not fully specified (bridges); printed as CH3(CH2)16CO-RRR-SGRGSGCFGGRMDRIGAQSGLG; cysteine pairing not given here; listed as Homo Sapiens) [SEQ ID NO. 38]
In vivo blood cGMP minus baseline, 2 hour (potency): 33.56 nM
In vivo blood cGMP minus baseline, 6 hour (receptor depletion): 7.97 pmol/mL
activity / potency compared to ANP, in words (2 hour data in Table 2): limited increase in activity

CH3(CH2)16CO-RRR-SLPRSSCFGGRMDRIGAQSGLGCNSFRY-NH2 (Stearoyl-RRRSLPRSSCFGGRMDRIGAQSGLGCNSFRY-NH2; not fully specified (bridges); printed as CH3(CH2)16CO-RRR-SLPRSSCFGGRMDRIGAQSGLG; cysteine pairing not given here; listed as Homo Sapiens) [SEQ ID NO. 39]
In vivo blood cGMP minus baseline, 2 hour (potency): inactive
In vivo blood cGMP minus baseline, 6 hour (receptor depletion): inactive
activity / potency compared to ANP, in words (2 hour data in Table 2): loss or diminished of activity

CH3(CH2)16CO-RRR-SLPRSSCFGGRMDRIGAQSGLGCNSFrY-NH2 (Stearoyl-RRRSLPRSSCFGGRMDRIGAQSGLGCNSF[dR]Y-NH2; not fully specified (bridges); printed as CH3(CH2)16CO-RRR-SLPRSSCFGGRMDRIGAQSGLG; cysteine pairing not given here; listed as Homo Sapiens) [SEQ ID NO. 40]
In vivo blood cGMP minus baseline, 2 hour (potency): inactive
In vivo blood cGMP minus baseline, 6 hour (receptor depletion): inactive
activity / potency compared to ANP, in words (2 hour data in Table 2): loss or diminished of activity

CH3(CH2)16COKKGGGGLSKGCFGLKLDRIGSMSGLGC (Stearoyl-KKGGGGLSKGCFGLKLDRIGSMSGLGC; not fully specified (bridges); printed as CH3(CH2)16COKKGGGGLSKGCFGLKLDRIGSMSGLGC; cysteine pairing not given here; listed as Homo Sapiens) [SEQ ID NO. 86]
In vivo blood cGMP minus baseline, 2 hour (potency): 80.2 nM
In vivo blood cGMP minus baseline, 6 hour (receptor depletion): 42.37 pmol/mL

CH3(CH2)16COKKKGGGGLSKGCFGLKLDRIGSMSGLGC (Stearoyl-KKKGGGGLSKGCFGLKLDRIGSMSGLGC; not fully specified (bridges); printed as CH3(CH2)16COKKKGGGGLSKGCFGLKLDRIGSMSGLGC; cysteine pairing not given here; listed as Homo Sapiens) [SEQ ID NO. 68]
In vivo blood cGMP minus baseline, 2 hour (potency): 330.29 nM
In vivo blood cGMP minus baseline, 6 hour (receptor depletion): 250.33 pmol/mL

CH3(CH2)16COKKKKGGGGLSKGCFGLKLDRIGSMSGLGC (Stearoyl-KKKKGGGGLSKGCFGLKLDRIGSMSGLGC; not fully specified (bridges); printed as CH3(CH2)16COKKKKGGGGLSKGCFGLKLDRIGSMSG; cysteine pairing not given here; listed as Homo Sapiens) [SEQ ID NO. 72]
In vivo blood cGMP minus baseline, 2 hour (potency): 544.99 nM
In vivo blood cGMP minus baseline, 6 hour (receptor depletion): 368.29 pmol/mL
activity / potency compared to ANP, in words (2 hour data in Table 2): increased potency
